Test [1] concerns nociceptive response to formalin injected into the rat paw. The test is described as follows: Formalin test, injection into the periaqueductal grey (PAG). The format is in vivo. The text has this:
(§1) The compounds of formula I are novel agents against […], acting by enhancing endocannabinoid levels (via FAAH inhibition) and at the same time by antagonizing TRPV1.

The next test addresses TRPV1 channels (Homo sapiens, UniProt Q8NER1). The test is described as follows: Blocking of TRPV1 channel activation by capsaicin. The format is cell-based. The conditions noted are these: capsaicin 100 nM; FIG. 1A; read-out: IC50 against capsaicin.
For test [2], the system named is nocifensive response to formalin. The test is described as follows: Formalin test, injection into the paw. The class given is in vivo. The conditions noted are these: injected into the paw; counteracted by AM251 and occluded by capsazepine.
From the text: as §1

A further test relates to anandamide levels. The test is described as follows: Anandamide levels in the PAG after intra-PAG injection. The format is in vivo. The conditions noted are these: rat, 4 μg/rat intra-PAG, measured 20 min following injection.
From the text: as §1

Test [3] deals with fatty acid amide hydrolase (FAAH) (Rattus norvegicus, UniProt P97612).
Chain of fatty acid amide hydrolase (FAAH) (P97612 whole entry): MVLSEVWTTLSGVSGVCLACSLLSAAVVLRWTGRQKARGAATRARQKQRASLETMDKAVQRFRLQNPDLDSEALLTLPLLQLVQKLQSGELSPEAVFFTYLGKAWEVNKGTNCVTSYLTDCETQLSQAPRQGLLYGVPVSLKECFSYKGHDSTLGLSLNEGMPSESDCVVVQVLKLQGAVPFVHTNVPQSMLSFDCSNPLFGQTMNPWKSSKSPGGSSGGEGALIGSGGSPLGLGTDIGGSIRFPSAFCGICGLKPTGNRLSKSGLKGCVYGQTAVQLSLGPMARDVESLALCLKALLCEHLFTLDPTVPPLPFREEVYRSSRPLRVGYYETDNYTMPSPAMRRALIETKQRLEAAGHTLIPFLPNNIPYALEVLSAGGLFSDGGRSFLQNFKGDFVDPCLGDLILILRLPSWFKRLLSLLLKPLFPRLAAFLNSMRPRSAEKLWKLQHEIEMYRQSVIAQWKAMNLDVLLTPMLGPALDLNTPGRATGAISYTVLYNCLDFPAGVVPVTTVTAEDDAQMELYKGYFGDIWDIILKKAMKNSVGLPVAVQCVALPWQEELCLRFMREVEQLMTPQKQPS

Chain of TRPV1 channels (Q8NER1 whole entry): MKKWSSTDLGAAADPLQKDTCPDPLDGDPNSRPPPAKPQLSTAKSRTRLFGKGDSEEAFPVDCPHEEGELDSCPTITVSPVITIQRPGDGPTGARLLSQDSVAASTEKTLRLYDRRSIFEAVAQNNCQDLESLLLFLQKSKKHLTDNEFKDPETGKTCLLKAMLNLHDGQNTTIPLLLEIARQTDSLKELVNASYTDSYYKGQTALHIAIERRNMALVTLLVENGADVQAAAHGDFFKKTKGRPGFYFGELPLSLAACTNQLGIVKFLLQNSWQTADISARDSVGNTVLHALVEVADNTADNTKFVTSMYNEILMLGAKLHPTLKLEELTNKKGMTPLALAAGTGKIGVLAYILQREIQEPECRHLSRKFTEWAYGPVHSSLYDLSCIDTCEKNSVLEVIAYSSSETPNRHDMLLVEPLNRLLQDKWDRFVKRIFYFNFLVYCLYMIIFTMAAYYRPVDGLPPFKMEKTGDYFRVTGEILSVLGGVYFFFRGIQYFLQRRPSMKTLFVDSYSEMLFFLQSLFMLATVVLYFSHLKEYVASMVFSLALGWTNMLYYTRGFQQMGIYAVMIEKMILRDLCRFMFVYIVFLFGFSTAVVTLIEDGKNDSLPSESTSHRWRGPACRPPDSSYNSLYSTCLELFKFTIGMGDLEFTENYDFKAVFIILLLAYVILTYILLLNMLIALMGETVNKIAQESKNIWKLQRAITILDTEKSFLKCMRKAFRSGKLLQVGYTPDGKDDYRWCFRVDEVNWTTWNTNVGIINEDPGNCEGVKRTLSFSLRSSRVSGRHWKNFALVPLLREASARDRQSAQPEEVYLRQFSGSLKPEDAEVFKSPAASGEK

The term IC50 denotes the concentration that gives 50% inhibition. For the molecule `CCCCCC=CCC=CCC=CCC=CCCCC(=O)NCCc1c[nH]c2ccc(O)cc12` [AA-5-HT, N-arachidonoyl-serotonin], in test [1] (4 μg/rat injected directly into PAG), the “nociceptive response to formalin” value is listed as “potently inhibits both phases”. Moreover, the “anti-hyperalgesic effect in presence of CB1 receptor antagonist AM251” value in test [1] (intra-PAG, with AM251 (nmol/rat)) is “counteracted”. For the same molecule, the “anti-hyperalgesic effect in presence of TRPV1 antagonist capsazepine” value in test [1] (intra-PAG, with capsazepine 6 nmol/rat) was “occluded”. The IC50 on TRPV1 channels was 130 nM. For the same molecule, the “nocifensive response to formalin” value in test [2] is recorded as “selectively block the 2nd, inflammatory phase”. In the test on anandamide levels, the “anandamide levels in the PAG” value is “elevated”. Moreover, the “type of FAAH inhibition” value in test [3] was “mixed inhibitors”.

Source of the values: patent US20070259945A1, “METHOD FOR TREATING PAIN” (ALLERGAN, INC., priority 2005, published 2007).
